Columns and labels:
[1] = tested on: isolated rat aorta; assay: Anticalcium activity: antagonism of KCl-mediated contraction of isolated rat aorta; settings: KCl 5×10^-2 M.l^-1 contraction, isolated rat thoracic aorta ring
Protocol: 2) Anticalcium activity by measuring the KCl-mediated antagonism of the contraction of isolated rat aorta
The technique employed uses a ring of arterial vascular tissue taken from rat thoracic aorta and then kept alive in aerated bicarbonated Krebs buffer, and subjected to an initial tension of 2 g. The introduction of potassium chloride KCl (in a volume of 300 μl) at a concentration 5×10^-2 M.l^-1 into the Krebs buffer bath generates a sustained contraction whose amplitude (isometric tension) is antagonized by the addition of a solution of the test compound of increasing concentrations, each addition being made every 5 minutes. The molar concentration of the test compound which reduces by 50% the maximum contraction observed in KCl is then calculated. This concentration is the 50% inhibitory concentration (or IC50).

[2] = tested on: conscious, spontaneously hypertensive rats; assay: Hypotensive effect in conscious, spontaneously hypertensive rats; type: in vivo, rat; settings: gastric route
Protocol: 3) Hypotensive effect in conscious, spontaneously hypertensive rats
The animals receive increasing doses of compound every 90 minutes via the gastric route.
The hypotensive effect is evaluated by means of the percentage of maximum reduction of the average arterial pressure after administration of each dose.

[3] = tested on: anaesthetized dogs; assay: Therapeutic index: minimum arrhythmogenic dose / dose active on the coronary output, anaesthetized dogs; type: in vivo, dog; parameters: minimum arrhythmogenic dose: unit: µg/kg; settings: for ED (50% increase): Canis lupus familiaris, iv, read-out: dose which is active on the coronary output (increases the basal coronary output by 50%); for minimum arrhythmogenic dose: anaesthetized dogs, intravenous route
From the text: (§1) 5) Therapeutic index The therapeutic index is defined as being the ratio between the minimum arrhythmogenic dose and the dose which increases the basal coronary output by 50% (this dose is referred to hereinbelow as the "dose which is active on the coronary output").

[4] = as above; type: in vivo, dog; parameters: minimum arrhythmogenic dose: unit: µg/kg; settings: dog, in vivo; ratio, anaesthetized dogs, intravenous route; read-out: Arrhythmogenic dose/dose which is active on the coronary output (therapeutic index)
From the text: as §1

[5] = tested on: coronary output of anaesthetized dogs; assay: Effect on the coronary output of anaesthetized dogs; type: in vivo, dog; settings: intravenous
Protocol: 4) Effect on the coronary output of anaesthetized dogs
The animals receive increasing doses of compound every 30 minutes via the intravenous route. The effect on the coronary output is evaluated by means of its percentage of maximum variation after each dose.

[6] = target: T1, DHP sites of rat cardiac ventricles (Rattus norvegicus, UniProt P22002); assay: Anticalcium activity: affinity for the DHP sites of rat cardiac ventricles, displacement of (+)-[3H]-PN 200-110; type: binding; settings: displacement of (+)-[3H]-PN 200-110, rat cardiac ventricle membranes, 30 minutes, 30° C.
T1 construct: membrane preparation of the receptors, this preparation being obtained after dissecting the ventricles; from tissue; host or cells: rat cardiac ventricles (membrane preparation)
T1 sequence (P22002 whole entry, other chains not shown): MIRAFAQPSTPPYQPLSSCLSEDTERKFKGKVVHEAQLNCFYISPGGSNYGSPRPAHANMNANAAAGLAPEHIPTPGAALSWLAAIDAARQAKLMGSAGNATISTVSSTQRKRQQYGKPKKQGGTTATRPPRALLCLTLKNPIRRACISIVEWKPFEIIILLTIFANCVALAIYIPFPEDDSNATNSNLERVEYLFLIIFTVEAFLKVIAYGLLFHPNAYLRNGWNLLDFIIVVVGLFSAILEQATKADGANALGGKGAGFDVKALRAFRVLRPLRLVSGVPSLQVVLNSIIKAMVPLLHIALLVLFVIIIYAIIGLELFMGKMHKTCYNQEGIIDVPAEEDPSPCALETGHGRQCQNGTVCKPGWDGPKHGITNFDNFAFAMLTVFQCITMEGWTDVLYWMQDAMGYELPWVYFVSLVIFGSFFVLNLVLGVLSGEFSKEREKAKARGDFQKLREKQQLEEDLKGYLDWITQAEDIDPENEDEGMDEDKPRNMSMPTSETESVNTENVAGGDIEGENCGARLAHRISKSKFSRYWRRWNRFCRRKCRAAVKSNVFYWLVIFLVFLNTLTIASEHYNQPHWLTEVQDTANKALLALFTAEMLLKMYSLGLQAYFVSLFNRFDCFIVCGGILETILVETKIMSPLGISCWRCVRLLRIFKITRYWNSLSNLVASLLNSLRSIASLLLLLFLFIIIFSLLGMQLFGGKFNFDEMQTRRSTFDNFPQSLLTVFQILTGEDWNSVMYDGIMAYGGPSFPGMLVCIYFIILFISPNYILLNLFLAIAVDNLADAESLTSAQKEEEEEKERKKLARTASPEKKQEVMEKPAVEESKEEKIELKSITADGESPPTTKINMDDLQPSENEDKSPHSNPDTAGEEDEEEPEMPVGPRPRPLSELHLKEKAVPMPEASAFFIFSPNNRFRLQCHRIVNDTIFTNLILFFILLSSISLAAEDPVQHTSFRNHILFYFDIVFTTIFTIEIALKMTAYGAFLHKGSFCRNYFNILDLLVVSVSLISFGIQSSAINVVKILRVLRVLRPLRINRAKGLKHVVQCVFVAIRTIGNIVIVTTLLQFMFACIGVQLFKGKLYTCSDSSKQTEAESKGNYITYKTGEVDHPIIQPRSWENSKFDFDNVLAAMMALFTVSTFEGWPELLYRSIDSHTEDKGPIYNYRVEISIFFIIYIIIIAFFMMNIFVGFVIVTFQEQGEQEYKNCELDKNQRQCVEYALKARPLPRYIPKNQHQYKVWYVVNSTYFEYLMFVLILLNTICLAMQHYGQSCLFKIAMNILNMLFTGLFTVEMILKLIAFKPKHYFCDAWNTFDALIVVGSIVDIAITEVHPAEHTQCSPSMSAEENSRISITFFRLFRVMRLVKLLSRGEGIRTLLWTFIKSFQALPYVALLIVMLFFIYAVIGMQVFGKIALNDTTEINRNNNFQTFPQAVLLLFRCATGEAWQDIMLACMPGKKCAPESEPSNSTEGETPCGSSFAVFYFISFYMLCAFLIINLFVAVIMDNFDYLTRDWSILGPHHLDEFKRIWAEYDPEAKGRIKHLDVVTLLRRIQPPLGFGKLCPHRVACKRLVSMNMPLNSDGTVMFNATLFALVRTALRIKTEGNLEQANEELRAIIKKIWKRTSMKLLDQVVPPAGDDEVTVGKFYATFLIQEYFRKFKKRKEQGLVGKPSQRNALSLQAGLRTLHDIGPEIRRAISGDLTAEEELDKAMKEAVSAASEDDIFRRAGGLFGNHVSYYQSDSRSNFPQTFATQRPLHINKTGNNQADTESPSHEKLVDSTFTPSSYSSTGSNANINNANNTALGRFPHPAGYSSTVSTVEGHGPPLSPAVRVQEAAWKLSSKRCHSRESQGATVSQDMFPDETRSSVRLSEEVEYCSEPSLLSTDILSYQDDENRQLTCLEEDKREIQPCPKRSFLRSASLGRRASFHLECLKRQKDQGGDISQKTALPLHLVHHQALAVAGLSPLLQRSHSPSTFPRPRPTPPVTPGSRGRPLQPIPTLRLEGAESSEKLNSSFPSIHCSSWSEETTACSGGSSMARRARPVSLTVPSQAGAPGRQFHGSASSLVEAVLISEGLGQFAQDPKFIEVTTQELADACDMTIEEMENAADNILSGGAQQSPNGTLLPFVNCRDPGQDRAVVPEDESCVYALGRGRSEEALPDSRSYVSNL
T1 sequence (P54290 25-944 partner limits assumed, other chains not shown): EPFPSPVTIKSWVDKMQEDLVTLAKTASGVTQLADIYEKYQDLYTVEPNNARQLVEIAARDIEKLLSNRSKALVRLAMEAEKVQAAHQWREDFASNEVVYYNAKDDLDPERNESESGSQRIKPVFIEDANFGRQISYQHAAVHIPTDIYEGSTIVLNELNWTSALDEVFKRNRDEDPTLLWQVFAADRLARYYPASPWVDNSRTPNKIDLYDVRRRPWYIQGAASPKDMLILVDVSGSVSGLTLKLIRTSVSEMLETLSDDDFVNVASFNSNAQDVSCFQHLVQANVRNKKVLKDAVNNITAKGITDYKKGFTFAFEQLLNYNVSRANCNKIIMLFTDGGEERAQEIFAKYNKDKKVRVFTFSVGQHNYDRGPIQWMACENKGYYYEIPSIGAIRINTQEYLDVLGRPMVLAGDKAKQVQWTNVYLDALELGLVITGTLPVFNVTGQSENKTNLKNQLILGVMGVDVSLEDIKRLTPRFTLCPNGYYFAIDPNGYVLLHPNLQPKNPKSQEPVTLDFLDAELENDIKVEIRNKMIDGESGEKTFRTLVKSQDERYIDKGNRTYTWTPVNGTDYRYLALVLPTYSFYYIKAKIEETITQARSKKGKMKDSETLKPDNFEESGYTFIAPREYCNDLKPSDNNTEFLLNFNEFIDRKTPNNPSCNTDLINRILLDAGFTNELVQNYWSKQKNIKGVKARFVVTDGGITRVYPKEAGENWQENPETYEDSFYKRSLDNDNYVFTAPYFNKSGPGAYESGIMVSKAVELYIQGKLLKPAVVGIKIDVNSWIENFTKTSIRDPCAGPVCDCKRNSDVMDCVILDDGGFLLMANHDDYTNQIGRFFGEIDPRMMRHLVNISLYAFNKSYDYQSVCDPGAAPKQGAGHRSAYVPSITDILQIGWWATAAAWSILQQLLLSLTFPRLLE
T1 sequence (P54290 945-1091 partner limits assumed, other chains not shown): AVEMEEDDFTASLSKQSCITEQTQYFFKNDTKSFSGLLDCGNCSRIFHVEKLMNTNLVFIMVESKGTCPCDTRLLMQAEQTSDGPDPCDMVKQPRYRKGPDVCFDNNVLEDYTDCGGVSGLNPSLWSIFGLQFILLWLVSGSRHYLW
Protocol: 1) Anticalcium activity by measuring the affinity for the DHP sites of rat cardiac ventricles
These membrane preparations are placed in contact with the specific radioactive ligand (+)-[^3 H]-PN 200-110 and the test compound, at different concentrations. The suspension is stirred for 30 minutes at a temperature of 30° C. The reaction is then stopped by filtration using a Harvester-type system. The filter is introduced into a counting flask containing scintillation liquid. The radioactivity present on each filter is then measured by counting in a β-counter with liquid scintillation.
The intensity of the binding to the membrane receptors is defined by the (molar) concentration of the test compound which is needed to displace 50% of the amount of the specific ligand (+)-[^3 H]-PN 200-110 prebound to the DHP sites. This concentration is the IC50 concentration.

[7] = dose +10 mg/kg, increasing doses every 90 minutes
[8] = dose +30 mg/kg, increasing doses every 90 minutes
[9] = dose +10 μg/kg, increasing doses every 30 minutes
[10] = dose +20 μg/kg, increasing doses every 30 minutes
[11] = dose +40 μg/kg, increasing doses every 30 minutes
[12] = dose +80 μg/kg, increasing doses every 30 minutes
[13] = dose +160 μg/kg, increasing doses every 30 minutes
[14] = dose +320 μg/kg, increasing doses every 30 minutes

SMILES: COC(=O)C1=C(C)NC(C)=C(C(=O)O[C@@H]2CCCN(CCCCC(=O)c3cccs3)C2)[C@H]1c1cccc([N+](=O)[O-])c1 [Example 1, (4S,3'R)(-)N-[4-(2-thienoyl)-butyl]piperid-3'-yl 2,6-dimethyl-4-(3-nitrophenyl)-5-methoxycarbonyl-1,4-dihydropyridine-3-carboxylate]
- IC50 [1]: 130 nM
- percentage of maximum reduction of the average arterial pressure ([2]; dose 3 mg/kg): 0%
- percentage of maximum reduction of the average arterial pressure [2, 7]: -22%
- percentage of maximum reduction of the average arterial pressure [2, 8]: -45%
- ED (50% increase) [3]: 0.02 mg/kg
- minimum arrhythmogenic dose [3]: 640
- selectivity ratio [4]: 32
- percentage of maximum variation of the coronary output ([5]; dose 5 μg/kg): 12%
- percentage of maximum variation of the coronary output [5, 9]: +28%
- percentage of maximum variation of the coronary output [5, 10]: +56%
- percentage of maximum variation of the coronary output [5, 11]: +72%
- percentage of maximum variation of the coronary output [5, 12]: +81%
- percentage of maximum variation of the coronary output [5, 13]: +67%
- percentage of maximum variation of the coronary output [5, 14]: +64%
- IC50 [6]: 15 nM

SMILES: COC(=O)C1=C(C)NC(C)=C(C(=O)O[C@@H]2CCN(CCCCC(=O)c3c(OC)cc(OC)cc3OC)C2)[C@H]1c1cccc([N+](=O)[O-])c1 [Example 2, (4S,3'R)(-)N-[4-(2,4,6-trimethoxybenzoyl)butyl]pyrrolidin-3'-yl 2,6-dimethyl-4-(3-nitrophenyl)-5-methoxycarbonyl-1,4-dihydropyridine-3-carboxylate]
- ED (50% increase) [3]: 0.04 mg/kg
- minimum arrhythmogenic dose [3]: 640
- selectivity ratio [4]: 16
- percentage of maximum variation of the coronary output ([5]; dose 5 μg/kg): +16%
- percentage of maximum variation of the coronary output [5, 9]: +14%
- percentage of maximum variation of the coronary output [5, 10]: +34%
- percentage of maximum variation of the coronary output [5, 11]: +78%
- percentage of maximum variation of the coronary output [5, 12]: +68%
- percentage of maximum variation of the coronary output [5, 13]: +59%
- percentage of maximum variation of the coronary output [5, 14]: +33%
- IC50 [6]: 7.8 nM

SMILES: COC(=O)C1=C(C)NC(C)=C(C(=O)O[C@@H]2CCCN(CCCCC(=O)c3ccc[nH]3)C2)[C@H]1c1cccc([N+](=O)[O-])c1 [Example 3, (4S,3'R)(-)N-[5-(1H-pyrrol-2-yl)-5-oxopentyl]piperid-3'-yl 2,6-dimethyl-4-(3-nitrophenyl)-5-methoxycarbonyl-1,4-dihydropyridine-3-caroxylate]
- IC50 [1]: 160 nM
- percentage of maximum reduction of the average arterial pressure ([2]; dose 3 mg/kg): -12%
- percentage of maximum reduction of the average arterial pressure [2, 7]: -21%
- percentage of maximum reduction of the average arterial pressure [2, 8]: -54%
- ED (50% increase) [3]: 0.02 mg/kg
- minimum arrhythmogenic dose [3]: 640
- selectivity ratio [4]: 32
- percentage of maximum variation of the coronary output ([5]; dose 5 μg/kg): +7%
- percentage of maximum variation of the coronary output [5, 9]: +30%
- percentage of maximum variation of the coronary output [5, 10]: +59%
- percentage of maximum variation of the coronary output [5, 11]: +76%
- percentage of maximum variation of the coronary output [5, 12]: +84%
- percentage of maximum variation of the coronary output [5, 13]: +84%
- percentage of maximum variation of the coronary output [5, 14]: +59%

SMILES: COC(=O)C1=C(C)NC(C)=C(C(=O)O[C@@H]2CCCN(CCCC(=O)c3cccs3)C2)[C@H]1c1cccc([N+](=O)[O-])c1 [Example A, reference compound]
- ED (50% increase) [3]: 0.64 mg/kg
- minimum arrhythmogenic dose [3]: 640
- selectivity ratio [4]: 1

SMILES: COC(=O)C1=C(C)NC(C)=C(C(=O)O[C@@H]2CCN(CCCC(=O)c3c(OC)cc(OC)cc3OC)C2)[C@H]1c1cccc([N+](=O)[O-])c1 [Example B, reference compound]
- ED (50% increase) [3]: 0.64 mg/kg
- minimum arrhythmogenic dose [3]: 640
- selectivity ratio [4]: 1
